Data: ChEMBL document CHEMBL3507680, “University of Dundee, Gates Library screen for HepG2 cell viability”

Assay: Human HepG2 cell viability assay in 384 well format
Assay type: toxicity, cell-based
Parameters: dose 125 nL, time 70.5 hour; cytotoxicity at 70.5 h: concentration not given beside the values
Settings: HepG2 cells, read-out: Inhibition

SMILES	cytotoxicity at 70.5 h [%]
O=c1[nH]ncc(NCCOc2cccc(Br)c2)c1Cl	-5.68
CC1(C)CN=C(N2CCN(CC3CCOC3)CC2)S1 (stereo not drawn)	-12.3
CC(C)c1nc2c(n1C)CCN(Cc1nc(-c3ccsc3)no1)C2	-9.76
O=C(CN1CCOc2ccccc2C1)N1Cc2cnn(CCO)c2C1	-0.755
CCN(CC)S(=O)(=O)N(Cc1ccccn1)Cc1ccccc1C	43.2
CC1(c2ccc(Br)cc2)CC(=O)N(CCC#N)C1=O (stereo not drawn)	32.5
Cc1nn(C)c2cnn(CC(=O)NCc3ccc4c(c3)OCO4)c12	-3.63
O=c1ccc2c(n1CCN1CCCC1)CCN(c1ncccn1)CC2	-4.06
CN1CCN(CC2(O)CCN(C(=O)CCc3ccccc3F)C2)CC1 (stereo not drawn)	1.21
O=C(Nc1ccccc1CCO)c1cccc(CN2CC[C@H](O)C2)c1	-8.22
CSCC(C)NCc1ccc2[nH]c(C)c(C)c2c1 (stereo not drawn)	1.07
O=C(O)c1cccnc1CN1CCCCC1CCc1cccc(O)c1 (stereo not drawn)	9.13
O=C(CN1C(=O)c2ccccc2C1=O)N1CCOC2(CCOCC2)C1	3.73
COc1ccc(OCc2noc(CN(C)C3CCS(=O)(=O)C3)n2)cc1 (stereo not drawn)	-5.76
CCN(C(=O)C1CCC1)C(c1cccnc1)c1ccc2c(c1)CCO2 (stereo not drawn)	38.8
c1cc2c(cc1-c1noc3c1CN(C1CCSCC1)CC3)OCO2	12.6
Cc1nc(C)n(CC2CCCN(Cc3nnc(C(C)(C)C)o3)C2)n1 (stereo not drawn)	-0.371
O=S(=O)(c1ccccc1)N1CC[C@]2(C[C@@H](OCC3CC3)CO2)C1	-10.2
Cc1ccc(N2CCC(C(O)c3cccs3)CC2)nn1 (stereo not drawn)	-4.12
Cc1ccc(S(=O)(=O)Nc2ccc(-n3cccc3C(=O)O)c(C)c2)s1	-3.61
O[C@]12CCNC[C@H]1CN(c1nccc3ccccc13)CC2	22.6
OC(COCc1ccccc1F)CN1CCc2c(ncn2C2CC2)C1 (stereo not drawn)	-2.37
CCN(CC)Cc1nc2c(o1)CN(C(=O)c1ccc3[nH]ccc3c1)C2	-17

SMILES	cytotoxicity at 70.5 h [%]
CN(C)CCNC(=O)CCn1ncc2c(Cl)cccc21	-4.46
CC(NC(=O)Cn1cccn1)c1ccc2c(c1)OCCCO2 (stereo not drawn)	52.1
CNc1cc(CNC(=O)c2ccccn2)nc(-c2ccncc2)n1	11.9
O=C(Cn1ccnc1)N(CCO)CCSc1ccc(Cl)cc1	-8.84
c1coc(CN2CCC3(CC2)COC(COCC2CCOCC2)C3)c1 (stereo not drawn)	-12.1
CC(C)(C)CC(=O)NCC1CCCS1 (stereo not drawn)	-8.2
CCc1ncc2c(n1)CN(C(=O)CNC(=O)C(C)C)C2	22.7
O=C(CC1=CSC2=NCCCN12)N1CCCCCC1c1ccco1 (stereo not drawn)	9.09
CC(C)NC(=O)[C@H]1C[C@@H]2[C@@H](C1)OCCN2Cc1ccsc1	-6.32
Cc1cc2ccccc2n1CCC(=O)N1CCN(C)CC1C(N)=O (stereo not drawn)	-2.15
COc1c(C2CCCN2Cc2cn3ccsc3n2)c(C)nn1C (stereo not drawn)	-6.12
Cc1ccc(NCc2cncc3c2CCN(Cc2ccccn2)C3)nn1	-13.4
CCC(C)(NCC(=O)NC(=O)NC)c1nccs1 (stereo not drawn)	-4.72
CCOC(=O)NC(CNC(=O)c1cccc(C)n1)CC(C)C (stereo not drawn)	7.69
CCCNC(=O)Nc1cccc2c1CCN(S(C)(=O)=O)C2	-1.5
N#Cc1ccc(CNC(=O)NC2CCN(CC(F)(F)F)C2)cc1 (stereo not drawn)	-5.15
COC(=O)c1cccnc1N1CCC(Oc2cccc(F)c2)CC1	1.14
Cc1ccc(C(=O)N2CC[C@@H]3[C@H]2CCC(=O)N3c2ccccc2)o1	-13.7
CC(C)c1n[nH]c(C(=O)Nc2ccnn2C(C)C)c1Br	45.8
CCCc1nn(C2CCN(C3CC3)C2=O)c(=O)o1 (stereo not drawn)	-5.48
CCOCc1nc2c(c(N3CC=CC3)n1)CCN(C1CCOCC1)CC2	0.826
COCCN1CCCn2cnc(CNC(=O)N(C)C)c2C1	-3.75
CN1CCCN(c2ccc(F)cc2CNC(=O)c2cccnc2)CC1	29.2

SMILES	cytotoxicity at 70.5 h [%]
Cc1n[nH]cc1CNC(C(=O)N1CCCCC1)c1ccccc1 (stereo not drawn)	3.13
CNC(=O)c1ccc(N(C)C2CCC2)nn1	9.71
CCn1nccc1CNC(=O)C1CCCO1 (stereo not drawn)	0.767
CCOC(=O)[C@H]1[C@@H](O)C(=O)N(C)C12CCN(C(=O)CC(C)(C)C)CC2	-6.45
CNC(=O)Cc1csc(NC(=O)C2CSCCC(=O)N2)n1 (stereo not drawn)	14.7
Cc1[nH]nc2ncc(C(=O)N3CCN(CC(C)C)CC3)cc12	11.9
Cc1csc(C2(NCc3nc(-c4ccco4)no3)CCCC2)n1	-12.8
CCNC(=O)c1cn2cc(-c3ccccc3Cl)n(CC3CC3)c(=O)c2n1	16.2
O=C1CCCN1Cc1nnn2c1CN(c1cccnc1)CCC2	-8.56
CCOC(=O)[C@@H]1[C@@H](c2ccccc2)CN2CCN(S(C)(=O)=O)C[C@H]12	-6.56
COc1ccccc1OC1CN(C(=O)Cc2c(C)nc(N)nc2C)C1	1.7
CC(C)[C@H](N)c1nnc(SCC(=O)Nc2ccc(Br)cc2)o1	-4.97
Cc1ccc(CN(C)C(=O)CN2CCCC2Cn2cccn2)o1 (stereo not drawn)	-9.22
CCOC1CC2(CCN(C(=O)COC)CC2)c2cc(F)ccc21 (stereo not drawn)	1.7
O=C(Cc1cccs1)N1CC[C@H]2[C@H]1CCN2Cc1cccnc1	-6.88
CSc1ccc(C(CC(=O)O)NC(=O)c2cc(C)on2)cc1 (stereo not drawn)	0.955
CCSc1ccc(C(C)NC(=O)CNS(C)(=O)=O)cc1 (stereo not drawn)	-7.13
Cc1nonc1OCCNC(=O)COc1ccc(Cl)cc1Cl	-13.9
CNC(=O)C1CCCCN1C(=O)c1csc(-c2ccccc2)n1 (stereo not drawn)	-9.17
Cc1cc(F)c2c(c1)CCCN2Cc1nc2c(cnn2C)c(=O)[nH]1	-28.1
CC(C)c1cccc(-n2cc(O)c(C(=O)NCCCn3cccn3)n2)c1	-5.65
COc1cccc(S(=O)(=O)NC(=O)CC2CCCO2)c1 (stereo not drawn)	21.5
Cc1nnc(SCC(=O)c2cc3c(cc2Cl)NC(=O)C3)o1	-31.5

SMILES	cytotoxicity at 70.5 h [%]
CCCn1nc2c(cc1=O)CN(Cc1nc(CCOC)no1)CC2	-3.53
CC(=O)N1CCO[C@@H]2CN(S(=O)(=O)c3ccc(F)cc3)CC[C@@H]2C1	-6.92
CCCN(CCC)S(=O)(=O)NC(C)C(=O)N(C)C (stereo not drawn)	-6.45
Cc1ccc(Cn2nc(C)c3c(C(=O)O)c(Cl)c(C4CC4)nc32)cc1	-4.45
CN(C)[C@H]1C[C@@H](Cc2cc(CO)on2)C1(C)C	-14.4
CCc1c(C(=O)N2CCC3(CCCN(CCO)C3=O)C2)csc1C (stereo not drawn)	6.16
CC(NC(=O)C1CCN(C(C)C)CC1)c1nncn1C1CCCC1 (stereo not drawn)	-4.33
Cc1ncsc1C(=O)NCc1cc2n(n1)CCN(C(=O)N(C)C)C2	-11.4
NC(=O)C1=NC2=NS(=O)(=O)c3ccccc3N2N1Cc1ccccc1Cl	-7.31
Cc1cc(C(=O)N2CCn3cnc(COCC4CC4)c3C2)no1	0.0472
CNC(=O)C(C)CN(C)C(=O)Nc1cc(F)cc(Br)c1 (stereo not drawn)	1.41
CC(C)N(CC(N)=O)Cc1cccc(Br)c1	1.5
CNC(=O)c1cnc2n1CCN(Cc1cccnc1OC)C2	-4.55
CC(=O)N1CCC2(CCN(CC(C)C)C2)C1 (stereo not drawn)	-5.21
COc1cccc(Cl)c1C(C(=O)O)N1CCC(O)(c2cccnc2)CC1 (stereo not drawn)	-3.34
CN1CCCC1(CCCc1cccnc1)C(=O)NCc1nccn1C (stereo not drawn)	-1.26
COc1cccc(CN2CCC3(COCc4cnc(N(C)C)nc43)C2)c1 (stereo not drawn)	1.22
c1cc(CCN2CCC(NCc3ccsc3)CC2)ccn1	15.8
CSCCC(C)(O)CNS(=O)(=O)Cc1cccc(C)c1 (stereo not drawn)	-16.9
Cc1ccc(C(=O)N(C)Cc2ccc(Br)s2)c(=O)[nH]1	2.28
Cc1nc(CN2CCC2(CCCc2ccccn2)C(=O)N(C)C)co1 (stereo not drawn)	-5.18
COC(=O)c1ccc(N2CCN(C(=O)c3ccc(=O)n(C)c3)CC2)cc1	-5.8
O=C1CN(Cc2nnc(-c3ccc(Cl)cc3)o2)CCN1	-9.87

SMILES	cytotoxicity at 70.5 h [%]
O=C(CCNS(=O)(=O)c1cccnc1)N1CCCCC1	15.8
CCCc1cnc(C)nc1N1CCC(Cc2cccc(C(N)=O)c2)C1 (stereo not drawn)	-2.67
CN1CCN([C@@H]2CN(C(=O)CCOc3ccccc3)C[C@H]2O)CC1	10.8
O=C(CSc1ccccc1)N1CCC(N2CCCCC2=O)CC1	19
N#Cc1ccc(SCCC(=O)Nc2ccc(CC(N)=O)cc2)cc1	6.57
O=C1CC(NCc2cnc(-c3cccs3)nc2)CN1c1ccccc1 (stereo not drawn)	-2.68
Cc1nc2cc(=O)[nH]n2c(C)c1CC(=O)Nc1cn[nH]c1	-2.66
CC(C)C(C)N1Cc2cccc(NCC(=O)N(C)C)c2C1 (stereo not drawn)	-8.25
O=C(NC[C@H]1OC[C@@H]2CCN(C3CCOCC3)C[C@@H]21)c1ccncc1	-3
CC(=O)N1CCC(C(=O)NCc2ncc(-c3ccccc3)o2)CC1	-14.2
COCC1CC2(CCN(Cc3nccs3)CC2)CN1Cc1ccccn1 (stereo not drawn)	9.76
CC(C)c1nnc2n1CCN(C(=O)c1ccc(N(C)C)nn1)C2	2.93
CCc1c(C)nc2cc(C3CCN(Cc4cccc(F)c4)C3)nn2c1O (stereo not drawn)	-7.92
COc1nsc2nc(C3CCCN3C(C)=O)ccc12 (stereo not drawn)	-3.15
COc1cccc2c1OCC(C(=O)NCc1c(C)noc1C)C2 (stereo not drawn)	-7.18
O=C(NCC(=O)N1CC2(CCCC2)c2c(F)cccc21)C1CC1	0.771
Cc1ccc(CN2CC[C@H]3[C@@H]2CCC(=O)N3CCN2CCCC2)s1	11.4
NC(=O)c1cnn2c1NCC(CNC1(c3ccccc3)CCC1)C2 (stereo not drawn)	-9.04
O=C(c1c[nH]c(=O)[nH]1)N1CCCC2(CCC(=O)N(C3CCCC3)C2)C1 (stereo not drawn)	1.3
CC(=O)N1CCC(c2nccnc2Oc2ccccc2)CC1	1.62
CC(C)(C)c1n[nH]c(C2CN(C(=O)c3cc(C4CC4)on3)CCO2)n1 (stereo not drawn)	28.3
